Laboratory results published in PMC11631053, “A receptor-based assay to study the sweet and bitter tastes of sweeteners and binary sweet blends: the SWEET project” (Chemical Senses, 2024).
Marks after values point to notes of the source that are not given here. Blank lines part the entries; values can stand above or below the molecule they belong to.

Experiments:
[1] = sucrose = 1; ref Schiffman and Gatlin (1993); cited from earlier work
TAS1R2/TAS1R3 = molecular target: T1, TAS1R2/TAS1R3 (Homo sapiens, UniProt Q7RTX0+Q8TE23); test: Calcium mobilization assay, HEK293T-Gα16gust44 cells expressing the sweet taste receptor; conditions: sweet compound alone
T1 sequence (Q8TE23 20-839): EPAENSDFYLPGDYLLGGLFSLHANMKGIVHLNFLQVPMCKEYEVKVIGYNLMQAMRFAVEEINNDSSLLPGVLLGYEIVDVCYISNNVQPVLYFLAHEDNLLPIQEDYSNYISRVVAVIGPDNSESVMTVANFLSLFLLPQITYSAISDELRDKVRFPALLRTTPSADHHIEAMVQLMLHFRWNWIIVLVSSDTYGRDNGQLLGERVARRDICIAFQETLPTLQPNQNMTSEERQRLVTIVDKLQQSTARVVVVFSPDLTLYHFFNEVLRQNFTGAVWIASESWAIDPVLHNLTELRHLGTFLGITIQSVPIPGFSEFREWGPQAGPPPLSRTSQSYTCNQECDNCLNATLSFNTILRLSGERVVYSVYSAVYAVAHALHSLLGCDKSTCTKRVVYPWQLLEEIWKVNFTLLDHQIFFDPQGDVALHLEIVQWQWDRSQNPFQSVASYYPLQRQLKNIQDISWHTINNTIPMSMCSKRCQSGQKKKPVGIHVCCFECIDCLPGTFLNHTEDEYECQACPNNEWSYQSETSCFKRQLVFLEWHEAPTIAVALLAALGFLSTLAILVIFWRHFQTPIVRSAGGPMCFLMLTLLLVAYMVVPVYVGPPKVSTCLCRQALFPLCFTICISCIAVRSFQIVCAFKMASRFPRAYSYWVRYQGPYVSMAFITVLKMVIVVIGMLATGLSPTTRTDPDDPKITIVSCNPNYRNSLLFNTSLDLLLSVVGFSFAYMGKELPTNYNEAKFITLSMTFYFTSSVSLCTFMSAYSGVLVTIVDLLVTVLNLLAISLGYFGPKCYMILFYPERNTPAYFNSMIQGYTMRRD
T1 sequence (Q7RTX0 21-852): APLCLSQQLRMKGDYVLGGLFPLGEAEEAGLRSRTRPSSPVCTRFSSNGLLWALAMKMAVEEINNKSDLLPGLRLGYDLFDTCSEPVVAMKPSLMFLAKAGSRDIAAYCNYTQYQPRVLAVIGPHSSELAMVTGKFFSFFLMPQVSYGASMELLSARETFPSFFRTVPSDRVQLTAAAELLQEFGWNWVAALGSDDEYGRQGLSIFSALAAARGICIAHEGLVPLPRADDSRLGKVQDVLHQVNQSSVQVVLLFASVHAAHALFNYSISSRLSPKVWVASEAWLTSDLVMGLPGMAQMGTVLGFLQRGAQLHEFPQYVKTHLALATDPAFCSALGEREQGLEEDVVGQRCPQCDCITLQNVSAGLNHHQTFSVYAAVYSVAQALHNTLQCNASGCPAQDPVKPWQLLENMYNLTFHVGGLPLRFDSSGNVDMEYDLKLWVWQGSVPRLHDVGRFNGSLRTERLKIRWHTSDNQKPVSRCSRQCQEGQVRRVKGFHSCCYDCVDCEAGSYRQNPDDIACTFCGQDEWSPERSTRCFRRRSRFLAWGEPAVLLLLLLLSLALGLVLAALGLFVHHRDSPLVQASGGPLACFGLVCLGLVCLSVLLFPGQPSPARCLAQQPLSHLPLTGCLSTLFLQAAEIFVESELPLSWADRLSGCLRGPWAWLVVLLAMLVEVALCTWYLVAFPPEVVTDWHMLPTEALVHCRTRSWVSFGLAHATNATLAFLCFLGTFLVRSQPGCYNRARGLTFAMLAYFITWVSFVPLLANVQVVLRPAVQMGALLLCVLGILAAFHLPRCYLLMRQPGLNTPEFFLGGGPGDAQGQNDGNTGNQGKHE
Procedure: Different concentration ranges were tested depending on the injected sweet compound. […] All of the concentration-receptor combinations were measured in triplicate, and each experiment was repeated at least 3 times. The Ca^2+ change was expressed as a fractional change in fluorescent light intensity: ΔF/F = (F − F0)/F0, where F was the fluorescent light intensity at each point, and F0 was the value of fluorescent light emitted prior to stimulus application. To calculate dose–response relationships, the changes in fluorescence upon stimulus application were averaged, mock-subtracted and baseline-corrected. The resulting obtained dose–response data were adjusted by using a 4-parameter logistic equation.

TAS2R1 = conditions: ref Meyerhof et al. 2010; cited from earlier work
TAS2R8 = conditions: ref Meyerhof et al. 2010; cited from earlier work

Max ΔF/F0 (TAS1R2/TAS1R3; maximal signal amplitude): 0.10 ± 0.03
Molecule: OC[C@H]1O[C@@](CO)(O[C@H]2O[C@H](CO)[C@@H](O)[C@H](O)[C@H]2O)[C@@H](O)[C@@H]1O [Sucrose, reference compound]
Sweetness potency [1]: 1^g

Molecule: O=S(=O)(O)NC1CCCCC1 [cyclamate]
concentration at which activation of TAS2R1 occurs (TAS2R1): approximately 30 mM
concentration at which activation of TAS2R8 occurs (TAS2R8): approximately 30 mM

EC50 (TAS1R2/TAS1R3; read-out: EC50 value): 12 ± 2 µM
B1: thaumatin (protein)
chain: ATFEIVNRCSYTVWAAASKGDAALDAGGRQLNSGESWTINVEPGTNGGKIWARTDCYFDDSGSGICKTGDCGGLLRCKRFGRPPTTLAEFSLNQYGKDYIDISNIKGFNVPMDFSPTTRGCRGVRCAADIVGQCPAKLKAPGGGCNDACTVFQTSEYCCTTGKCGPTEYSRFFKRLCPDAFSYVLDKPTTVTCPGSSNYRVTFCPTA
modifications: 8 disulfide bonds; natural (E957) thaumatin is a mixture of mainly thaumatin I and II
